# Test results taken from US8778951B2, “Heteroaryl compounds and their uses” (Novartis AG, priority 2009, dated 2014).
# Biological target: Cdk9/cyclinT1 (Homo sapiens (Human), UniProt P50750)
# Experiment: Cdk9/CyclinT1 IMAP Protocol (fluorescence polarization kinase assay)
# Assay type: biochemical
# Details: Table 2; generated using one of the two Cdk9/cyclinT1 assays (IMAP or Alpha Screen), not specified which; unit inferred
# Method: Cdk9/CyclinT1 IMAP Protocol
# The biological activity of the compounds of the invention can be determined using the assay described below.
# Cdk9/cyclinT1 is purchased from Millipore, cat #14-685. The final total protein concentration in the assay 4 nM. […] The final concentration of peptide substrate is 100 nM. The ATP substrate (Adenosine-5′-triphosphate) is purchased from Roche Diagnostics, cat#1140965. The final concentration of ATP substrate is 6 uM. IMAP (Immobilized Metal Assay for Phosphochemicals) Progressive Binding reagent is purchased from Molecular Devices, cat#R8139. Fluorescence polarization (FP) is used for detection. The 5TAMRA-cdk7tide peptide is phosphorylated by Cdk9/cyclinT1 kinase using the ATP substrate. The Phospho-5TAMRA-cdk7tide peptide substrate is bound to the IMAP Progressive Binding Reagent. The binding of the IMAP Progressive Binding Reagent changes the fluorescence polarization of the 5TAMRA-cdk7tide peptide which is measured at an excitation of 531 nm and FP emission of 595 nm. Assays are carried out in 100 mM Tris, pH=7.2, mM MgCl2, 0.05% NaN3, 0.01% Tween-20, 1 mM dithiothreitol and 2.5% dimethyl sulfoxide. IMAP Progressive Binding Reagent is diluted 1:800 in 100% 1× Solution A from Molecular Devices, cat#R7285.
# General protocol is as follows: To 10 ul of cdk9/cyclinT1, 0.5 ul of test compound in dimethyl sulfoxide is added. 5TAMRA-cdk7tide and ATP are mixed. 10 ul of the 5TAMRA-cdk7tide/ATP mix is added to start the reaction. The reaction is allowed to proceed for 4.5 hrs. 60 uL of IMAP Progressive Binding Reagent is added. After >1 hr of incubation, plates are read on the Envision 2101 from Perkin-Elmer. The assay is run in a 384-well format using black Corning plates, cat#3573.
# Chain of Cdk9/cyclinT1 (P50750 whole entry): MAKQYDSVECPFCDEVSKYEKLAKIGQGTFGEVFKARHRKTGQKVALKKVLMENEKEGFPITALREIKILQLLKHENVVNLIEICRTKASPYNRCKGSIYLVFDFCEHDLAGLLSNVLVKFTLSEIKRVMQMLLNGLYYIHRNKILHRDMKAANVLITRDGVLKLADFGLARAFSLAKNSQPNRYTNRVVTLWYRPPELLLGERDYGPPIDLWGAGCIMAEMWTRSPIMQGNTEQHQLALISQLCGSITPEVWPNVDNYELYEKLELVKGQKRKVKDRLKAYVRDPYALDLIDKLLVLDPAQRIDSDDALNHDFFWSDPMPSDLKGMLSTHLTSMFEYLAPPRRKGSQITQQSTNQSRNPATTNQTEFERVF
# Chain of Cdk9/cyclinT1 (O60563 whole entry partner): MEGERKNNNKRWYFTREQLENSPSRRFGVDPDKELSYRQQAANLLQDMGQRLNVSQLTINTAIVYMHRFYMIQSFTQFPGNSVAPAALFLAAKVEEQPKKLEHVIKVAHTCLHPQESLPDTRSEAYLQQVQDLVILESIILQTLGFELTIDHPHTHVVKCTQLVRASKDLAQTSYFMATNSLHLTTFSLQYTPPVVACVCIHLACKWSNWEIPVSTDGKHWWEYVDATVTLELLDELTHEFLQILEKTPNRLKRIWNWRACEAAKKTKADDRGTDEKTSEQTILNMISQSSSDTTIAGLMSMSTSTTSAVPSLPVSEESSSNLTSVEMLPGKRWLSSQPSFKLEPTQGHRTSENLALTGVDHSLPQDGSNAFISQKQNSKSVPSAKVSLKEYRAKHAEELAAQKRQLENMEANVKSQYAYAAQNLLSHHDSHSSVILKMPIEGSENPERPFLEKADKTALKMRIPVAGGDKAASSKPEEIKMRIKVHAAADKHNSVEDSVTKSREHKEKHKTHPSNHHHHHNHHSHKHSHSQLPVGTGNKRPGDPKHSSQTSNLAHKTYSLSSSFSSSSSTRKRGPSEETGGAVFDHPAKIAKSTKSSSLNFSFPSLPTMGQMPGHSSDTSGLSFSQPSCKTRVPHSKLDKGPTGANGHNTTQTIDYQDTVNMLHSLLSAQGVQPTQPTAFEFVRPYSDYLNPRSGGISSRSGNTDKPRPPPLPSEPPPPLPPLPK
row,Compound,IC50
1,Clc1cnc(N[C@H]2CCCNC2)cc1-c1cccc(NCc2ccncc2)n1 [Compound 99],0.679 µM
2,Fc1ccc(CNc2cccc(-c3cc(N[C@H]4CCCNC4)ncc3Cl)n2)cc1F [Compound 100],0.309 µM
3,N[C@H]1CC[C@H](Nc2cc(-c3cncc(NCc4cccc(F)c4)n3)c(Cl)cn2)CC1 [Compound 101],0.00795 µM
4,CC(C)CN1CCC(Nc2cc(-c3cccc(NCc4cccc(F)c4)n3)c(Cl)cn2)CC1 [Compound 102],0.121 µM
5,CN1CCC(Nc2cc(-c3cccc(NCc4cccc(F)c4)n3)c(Cl)cn2)CC1 [Compound 103],0.134 µM
6,N[C@H]1CC[C@H](Nc2cc(-c3cccc(NC[C@H]4CCCO4)n3)c(Cl)cn2)CC1 [Compound 104],0.141 µM
7,CN(CC1CCOCC1)c1cccc(-c2cc(N[C@H]3CC[C@H](N)CC3)ncc2Cl)n1 [Compound 108],0.00795 µM
8,Nc1ncc(CNc2cccc(-c3cc(N[C@H]4CC[C@H](N)CC4)ncc3Cl)n2)cn1 [Compound 109],0.0158 µM
9,CN1CCN(C[C@H]2CC[C@H](Nc3cc(-c4cccc(NCc5cccc(F)c5)n4)c(Cl)cn3)CC2)CC1 [Compound 111],0.0308 µM
10,Fc1cccc(CNc2cccc(-c3cc(N[C@H]4CC[C@H](CN5CCCC5)CC4)ncc3Cl)n2)c1 [Compound 112],0.0273 µM
11,CNC(=O)[C@H]1CC[C@H](Nc2cc(-c3cccc(NCc4cccc(F)c4)n3)c(Cl)cn2)CC1 [Compound 113],0.0502 µM
12,O[C@H]1CC[C@H](Nc2cc(-c3cccc(NCc4cccc(F)c4)n3)c(Cl)cn2)CC1 [Compound 114],0.00795 µM
13,Fc1cccc(CNc2cccc(-c3cc(N[C@H]4CC[C@H](N5CCCCC5)CC4)ncc3Cl)n2)c1 [Compound 115],0.00795 µM
14,Fc1cccc(CNc2cccc(-c3cc(N[C@H]4CC[C@H](N5CCOCC5)CC4)ncc3Cl)n2)c1 [Compound 116],0.00795 µM
15,NCCNc1cccc(-c2cc(N[C@H]3CC[C@H](O)CC3)ncc2Cl)n1 [Compound 117],0.124 µM
16,NCCCNc1cccc(-c2cc(N[C@H]3CC[C@H](O)CC3)ncc2Cl)n1 [Compound 118],0.139 µM
17,O[C@H]1CC[C@H](Nc2cc(-c3cccc(NCC4CCNCC4)n3)c(Cl)cn2)CC1 [Compound 119],0.155 µM
18,O[C@H]1CC[C@H](Nc2cc(-c3cccc(NCc4cccnc4)n3)c(Cl)cn2)CC1 [Compound 120],0.0456 µM
19,O[C@H]1CC[C@H](Nc2cc(-c3cccc(NC[C@H]4CCCNC4)n3)c(Cl)cn2)CC1 [Compound 121],10.5 µM
20,O[C@H]1CC[C@H](Nc2cc(-c3cccc(NC[C@@H]4CCCNC4)n3)c(Cl)cn2)CC1 [Compound 123],0.0428 µM
21,CC(=O)NCCNc1cccc(-c2cc(N[C@H]3CC[C@H](O)CC3)ncc2Cl)n1 [Compound 124],0.116 µM
22,O[C@H]1CC[C@H](Nc2cc(-c3cccc(NCC4CCOCC4)n3)c(Cl)cn2)CC1 [Compound 126],0.0333 µM
23,O[C@H]1CC[C@H](Nc2cc(-c3cccc(NCC4CCCOC4)n3)c(Cl)cn2)CC1 (stereo partly shown) [Compound 128],0.0334 µM

row,Compound,IC50
1,O[C@H]1CC[C@H](Nc2cc(-c3cccc(NC4CCOCC4)n3)c(Cl)cn2)CC1 [Compound 129],0.39 µM
2,O[C@H]1CC[C@H](Nc2cc(-c3cccc(N4CCOCC4)n3)c(Cl)cn2)CC1 [Compound 131],0.47 µM
3,O[C@H]1CC[C@H](Nc2cc(-c3cccc(NCC4CCCCC4)n3)c(Cl)cn2)CC1 [Compound 132],0.0144 µM
4,O[C@H]1CC[C@H](Nc2cc(-c3cccc(NCc4cc(F)cc(F)c4)n3)c(Cl)cn2)CC1 [Compound 133],0.00795 µM
5,O[C@H]1CC[C@H](Nc2cc(-c3cccc(NCc4ccc(F)cc4)n3)c(Cl)cn2)CC1 [Compound 134],0.0105 µM
6,O[C@H]1CC[C@H](Nc2cc(-c3cccc(NCC4COCCO4)n3)c(Cl)cn2)CC1 (stereo partly shown) [Compound 135],0.142 µM
7,NC(=O)c1ccc(-c2cc(N[C@H]3CC[C@H](N)CC3)ncc2Cl)nc1NCc1cccc(F)c1 [Compound 138],0.522 µM
8,N[C@H]1CC[C@@H](Nc2cc(-c3cccc(NCc4cccc(F)c4)n3)c(Cl)cn2)CC1 [Compound 139],0.0301 µM
9,Fc1cccc(CNc2cccc(-c3cc(NC4CCCC4)ncc3Cl)n2)c1 [Compound 140],0.0126 µM
10,Fc1cccc(CNc2cccc(-c3cc(NC4CCCCC4)ncc3Cl)n2)c1 [Compound 141],0.205 µM
11,Fc1cccc(CNc2cccc(-c3cc(NC4CCOCC4)ncc3Cl)n2)c1 [Compound 142],0.0256 µM
12,Fc1cccc(CNc2cccc(-c3cc(NCC4CCOCC4)ncc3Cl)n2)c1 [Compound 143],0.0227 µM
13,NCCCNc1cc(-c2cccc(NCc3cccc(F)c3)n2)c(Cl)cn1 [Compound 144],0.0158 µM
14,OCCCNc1cc(-c2cccc(NCc3cccc(F)c3)n2)c(Cl)cn1 [Compound 146],0.00795 µM
15,COCCCNc1cc(-c2cccc(NCc3cccc(F)c3)n2)c(Cl)cn1 [Compound 147],0.0194 µM
16,Fc1cccc(CNc2cccc(-c3cc(N[C@@H]4CCCOC4)ncc3Cl)n2)c1 [Compound 148],15.6 µM
17,Fc1cccc(CNc2cccc(-c3cc(NC4CCC(F)(F)CC4)ncc3Cl)n2)c1 [Compound 149],0.516 µM
18,Fc1cccc(CNc2cccc(-c3cc(N[C@H]4CCCOC4)ncc3Cl)n2)c1 [Compound 150],6.51 µM
19,N[C@H]1CCCC[C@H]1Nc1cc(-c2cccc(NCc3cccc(F)c3)n2)c(Cl)cn1 [Compound 153],1.55 µM
20,"CCOC(=O)c1coc(N[C@H]2CC[C@H](Nc3cc(-c4cccc(NCc5cccc(F)c5)n4)c(Cl)cn3)CC2)n1 [Compound 155, Ethyl 2-(trans-4-(5′-chloro-6-(3-fluorobenzylamino)-2,4′-bipyridin-2′-yl-amino)cyclohexylamino)oxazole-4-carboxylate]",0.023 µM
21,COCCN[C@H]1CC[C@H](Nc2cc(-c3cccc(NCc4cccc(F)c4)n3)c(Cl)cn2)CC1 [Compound 157],0.0079 µM
22,CN1CCN([C@H]2CC[C@H](Nc3cc(-c4cccc(NCc5cccc(F)c5)n4)c(Cl)cn3)CC2)CC1 [Compound 158],0.011 µM
23,NCCNc1cc(-c2cccc(NCc3cccc(F)c3)n2)c(Cl)cn1 [Compound 159],1.38 µM

row,Compound,IC50
1,OCCNc1cc(-c2cccc(NCc3cccc(F)c3)n2)c(Cl)cn1 [Compound 160],0.019 µM
2,CN(C)CCCCNc1cc(-c2cccc(NCc3cccc(F)c3)n2)c(Cl)cn1 [Compound 161],0.026 µM
3,Fc1cccc(CNc2cccc(-c3cc(NCC4CCNCC4)ncc3Cl)n2)c1 [Compound 162],0.014 µM
4,CN1CCC(CNc2cc(-c3cccc(NCc4cccc(F)c4)n3)c(Cl)cn2)CC1 [Compound 163],0.013 µM
5,Fc1cccc(CNc2cccc(-c3cc(NC[C@H]4CCCNC4)ncc3Cl)n2)c1 [Compound 164],0.039 µM
6,Fc1cccc(CNc2cccc(-c3cc(NCC[C@H]4CCCNC4)ncc3Cl)n2)c1 [Compound 165],0.0079 µM
7,Fc1cccc(CNc2cccc(-c3cc(NC[C@@H]4CCCNC4)ncc3Cl)n2)c1 [Compound 166],0.027 µM
8,Fc1cccc(CNc2cccc(-c3cc(NCC[C@@H]4CCCNC4)ncc3Cl)n2)c1 [Compound 167],0.018 µM
9,Fc1cccc(CNc2cccc(-c3cc(NCCN4CCNCC4)ncc3Cl)n2)c1 [Compound 168],0.037 µM
10,N[C@H]1CC[C@H](CNc2cc(-c3cccc(NCc4cccc(F)c4)n3)c(Cl)cn2)CC1 [Compound 169],0.009 µM
11,CN1CCN(CCNc2cc(-c3cccc(NCc4cccc(F)c4)n3)c(Cl)cn2)CC1 [Compound 170],0.044 µM
12,Fc1cccc(CNc2cccc(-c3cc(NCCN4CCOCC4)ncc3Cl)n2)c1 [Compound 171],0.218 µM
13,CC(C)Nc1cc(-c2cccc(NCc3cccc(F)c3)n2)c(Cl)cn1 [Compound 172],0.015 µM
14,CCCCNc1cc(-c2cccc(NCc3cccc(F)c3)n2)c(Cl)cn1 [Compound 173],0.062 µM
15,Fc1cccc(CNc2cccc(-c3cc(NCCC4CCOCC4)ncc3Cl)n2)c1 [Compound 174],0.029 µM
16,Fc1cccc(CNc2cccc(-c3cc(NCCc4cccnc4)ncc3Cl)n2)c1 [Compound 175],0.024 µM
17,"CNc1cc(-c2cccc(NCc3cccc(F)c3)n2)c(Cl)cn1 [Compound 178, 5′-chloro-N6-(3-fluorobenzyl)-N2′-methyl-2,4′-bipyridine-2′,6-diamine]",0.103 µM
18,Nc1cc(-c2cccc(NCc3cccc(F)c3)n2)c(Cl)cn1 [Compound 179],0.544 µM
19,"COc1cnc(N[C@H]2CC[C@H](N)CC2)cc1-c1cccc(NCc2cccc(F)c2)n1 [Compound 180, N2′-(trans-4-aminocyclohexyl)-N6-(3-fluorobenzyl)-5′-methoxy-2,4′-bipyridine-2′,6-diamine]",0.0121 µM
20,OC[C@H]1CC[C@H](Nc2cc(-c3cccc(NCc4cccc(F)c4)n3)c(Cl)cn2)CC1 [Compound 181],0.00794 µM
21,O[C@H]1CC[C@@H](Nc2cc(-c3cccc(NCc4cccc(F)c4)n3)c(Cl)cn2)CC1 [Compound 182],0.0211 µM
